Test results: the OPERA property sets (Mansouri et al. 2018)
Peptide text beside a SMILES is read from it. * marks the point of attachment. NHtBu = CC(C)(C)N*

For CC(C)(C)C(=O)C(C)(C)C, the logP was 3.
With Cc1[nH]cnc1CSCCNC(=N)NCCSCc1nc[nH]c1C the logP was 1.34.
For CCc1cccc(C)c1N(C(=O)CCl)C(C)COC (stereo not drawn), the logP was 3.13.
For NS(=O)(=O)c1ccc([N+](=O)[O-])c(C(F)(F)F)c1, the logP was 1.73.
CCCCCCc1ccncc1 showed a logP of 4.35.
CCCCCCBr showed a logP of 3.8.
FC(F)(F)c1nc2c(Cl)cccc2[nH]1 gave a logP of 2.93.
Molecule COc1ccc(C(C)=O)cc1 has a logP of 1.74.
Nc1ccccc1[N+](=O)[O-] showed a logP of 1.85.
Molecule CCn1cc(C)c(=O)[nH]c1=O has a logP of -0.15.
In the case of CCN(N=O)C(=O)N(C)C, the logP is reported as 0.71.
O=S1(=O)N=CNc2ccccc21 showed a logP of 0.16.
With CC(C)=CC1C(C(=O)OCc2ccccc2)C1(C)C (stereo not drawn) the logP was 5.49.
Work on O=C(O)CC[Se]Cc1ccc([N+](=O)[O-])cc1 yielded a logP of 1.63.
CON(C)C(=O)Nc1ccc(Br)c(Cl)c1 gave a logP of 3.09.
With CC(C)Nc1nc(NC(C)(C)C)nc(SC(F)F)n1 the logP was 4.7.
Work on CC(=O)NC(C)C(=O)NC(Cc1c[nH]c2ccccc12)C(=O)NC(C)C(=O)NC(C)(C)C (stereo not drawn) (Ac-Ala-Trp-Ala-NHtBu; configuration not given here) yielded a logP of 1.26.
O=C(O)Cc1ccccc1Oc1ccc(Cl)cc1Cl showed a logP of 4.8.
For O=C(c1ccccc1)C(F)(F)F, the logP was 2.15.
Work on Cc1cccc(C=C(C(N)=O)C(N)=O)c1 yielded a logP of 0.4.
For CN(C)C(N(C)C)=S(I)c1cccc(F)c1 (stereo not drawn), the logP was -0.53.
Work on CC1=CC(=O)C=CC1=O yielded a logP of 0.72.
With Oc1ccc(Sc2ccc(O)cc2)cc1 the logP was 3.34.
Work on COc1ccc(Cl)cc1C(=O)NCCc1ccc(C(=O)O)cc1 yielded a logP of 3.4.
Work on Cc1cc(N)ncn1 yielded a logP of 0.19.
Work on O=C(O)CCCn1nnc2ccccc21 yielded a logP of 0.01.
For N#Cc1ccc[nH]1, the logP was 1.13.
For O=[N+]([O-])c1ccc2sccc2c1, the logP was 2.92.
In the case of CCOc1cccc(OC(=O)NC)c1, the logP is reported as 1.75.
Cc1ccnc2c(O)cccc12 showed a logP of 2.41.
COC(=O)C(Cl)(Cl)Cl showed a logP of 2.03.
With Nc1ccccc1C(=O)O the logP was 1.21.
O=[N+]([O-])c1cccc(Cl)c1 gave a logP of 2.46.
Molecule O=C(Oc1ccccc1)n1cc(F)c(=O)[nH]c1=O has a logP of 0.64.
With CS(=O)(=O)c1ccc(C(=O)O)cc1 the logP was 0.67.
CNC(=O)Oc1ccc(C#N)cc1 gave a logP of 0.95.
Nc1ncnc2c1ncn2[C@@H]1O[C@H](CO)[C@@H](O)[C@H]1O gave a logP of -1.05.
For CN(C)C(N(C)C)=S(I)c1ccc(Cl)cc1[N+](=O)[O-] (stereo not drawn), the logP was -0.09.
In the case of O=NN(CCCl)C(=O)NC1C(O)CCCC1O (stereo not drawn), the logP is reported as 0.16.
In the case of O=C(O)COc1ccc(Cl)c([N+](=O)[O-])c1, the logP is reported as 1.85.
Molecule COc1cc2c(cc1OC)C13CCN4CC5CCOC6CC(=O)N2C1C6C5CC43 (stereo not drawn) has a logP of 0.84.
O=C(O)CCl gave a logP of 0.22.
In the case of C#CCO, the logP is reported as -0.38.
CNP(=O)(OC)Oc1ccc(OC)cc1 (stereo not drawn) gave a logP of 1.06.
Molecule CN(C)C(N(C)C)=S(I)c1ccc(Cl)c(Cl)c1Cl (stereo not drawn) has a logP of 0.95.
Work on CC1(c2ccccc2)NC(=O)NC1=O (stereo not drawn) yielded a logP of 1.02.
Cc1cnnc2ccc(Cl)cc12 gave a logP of 1.96.
With CNC(=S)NCc1ccccc1 the logP was 1.35.
Molecule NC(=O)C1CCN(CCCN2c3ccccc3Sc3ccc(Cl)cc32)CC1 has a logP of 4.44.
For CCOC(=O)C(F)(F)F, the logP was 1.18.
COC(=O)Nc1nc2ccccc2[nH]1 gave a logP of 1.52.
COC(=O)COc1ccccc1C showed a logP of 2.08.
With CN(C)C(=O)OCc1ccc(OCc2ccccc2)cc1 the logP was 3.27.
Molecule N#Cc1sc2c(=O)c3ccccc3c(=O)c=2sc1C#N has a logP of 2.84.
C#CC1(O)CCCCC1 gave a logP of 1.73.
O=C(O)COc1cccc(Br)c1 showed a logP of 2.22.
Work on CC(C)NC(C)(C)C yielded a logP of 1.56.
In the case of CCCCCOCc1ccccc1NC(=O)OCCN1CCCCC1, the logP is reported as 4.42.
For O=NN1CCN(N=O)CC1, the logP was -0.85.
Work on CC(C)NCc1cccnc1 yielded a logP of 0.82.
COC1=C(OC)C(=O)C(C)=C(C)C1=O gave a logP of 1.26.
COc1ccc(NS(=O)(=O)c2ccc(N)cc2)cc1 gave a logP of 1.51.
Molecule CCCC(NC(C)=O)C(=O)OC (stereo not drawn) has a logP of 0.33.
In the case of COc1ccc(CCNCC(O)COc2cccc(C)c2)cc1OC (stereo not drawn), the logP is reported as 3.
In the case of CC(=O)Oc1cccc(F)c1, the logP is reported as 1.74.
In the case of Clc1ccccn1, the logP is reported as 1.22.
With CC=C(C)C1(C)CC(=O)C(C(CCC)=NOCC)C(=O)O1 (stereo not drawn) the logP was 3.4.
In the case of CC(=O)Nc1ccc2ncccc2c1, the logP is reported as 1.55.
Work on O=C(CF)NC(CO)C(O)c1ccc([N+](=O)[O-])cc1 (stereo not drawn) yielded a logP of 0.15.
Molecule O=C(O)Cc1ccc(C(F)(F)F)cc1 has a logP of 2.45.
In the case of CCCc1cc(C(=O)NN)ccn1, the logP is reported as 0.63.
In the case of COP(=O)(NC(C)=O)SC (stereo not drawn), the logP is reported as -0.85.
Work on CC(=O)NCc1ccccc1 yielded a logP of 0.95.
CCOP(=S)(OCC)SCCS(=O)(=O)CC showed a logP of 1.87.
For Nc1cc[nH]c(=O)n1, the logP was -1.73.
NC(=O)CCc1ccccc1 gave a logP of 0.91.
For CSc1nc(NC(C)C)nc(NC(C)C)n1, the logP was 3.51.
With Brc1ccc(-c2cc3ccccn3c2)cc1 the logP was 5.43.
In the case of OCC1OC(OCc2ccccc2)C(O)C(O)C1O (stereo not drawn), the logP is reported as -0.7.
Work on CCOC(=O)C=Cc1ccccc1 yielded a logP of 2.99.
Molecule CCCN(N=O)C(N)=O has a logP of 0.3.
COP(=O)(OC)OC=C(Cl)Cl showed a logP of 1.43.
O=S(=O)(c1ccccc1)c1ccccc1 gave a logP of 2.4.
With COc1cnnc2ccccc12 the logP was 1.41.
COP(=S)(OC)SCn1nnc2ccccc2c1=O showed a logP of 2.75.
Molecule CN(C)C(=O)Nc1ccc(C(=O)c2ccccc2)cc1 has a logP of 2.59.
With O=C(O)c1ccccc1I the logP was 2.4.
CCC(C)OC(=O)C(C(=O)OC(C)CC)=C1SCCS1 (stereo not drawn) showed a logP of 4.53.
CCC(C(N)=O)(C(N)=O)c1ccccc1 gave a logP of 0.13.
For Cc1cccc(C)c1O, the logP was 2.36.
Work on COc1cc2c(c(OC)c1OC)-c1ccc(OC)c(=O)cc1C(N)CC2 (stereo not drawn) yielded a logP of 1.1.
In the case of Sc1ccccc1, the logP is reported as 2.52.
With O=NN(CCCl)C(=O)NC1CCCCC1 the logP was 2.83.
In the case of O=C1CCC(N2C(=O)c3ccccc3C2=O)C(=O)N1 (stereo not drawn), the logP is reported as 0.33.
In the case of C#CCC(O)c1cccnc1 (stereo not drawn), the logP is reported as 1.21.
Molecule CC(=O)c1cccc(S(I)=C(N(C)C)N(C)C)c1 (stereo not drawn) has a logP of -0.88.
For CC(C)c1ccc(C(N)=O)cc1, the logP was 2.14.
Work on CC(C)Oc1cc(-n2nc(C(C)(C)C)oc2=O)c(Cl)cc1Cl yielded a logP of 4.8.
Work on O=C1c2ccccc2C(=O)N1CCCCBr yielded a logP of 2.96.
For O=[N+]([O-])c1nccn1CC(O)CN1CCCCC1 (stereo not drawn), the logP was 1.
With COc1ccc(C(C)=O)c(OC)c1OC the logP was 1.63.
Molecule CCNC(=O)Nc1ccccc1 has a logP of 1.64.
Work on CON(C)C(=O)Nc1cccc(O)c1 yielded a logP of 0.83.
N#CC#N gave a logP of 0.07.
Work on O=C(NC(=O)c1ccccc1O)c1ccccc1 yielded a logP of 1.38.
CCCCCC(=O)Nc1ccccc1 gave a logP of 3.28.
For CCOP(=S)(OCC)O/N=C(\C#N)c1ccccc1, the logP was 4.39.
Molecule CCC1CCCCN1C(=O)COC(=O)c1ccccc1 (stereo not drawn) has a logP of 2.62.
For CN(C)CC/C=C1\c2ccccc2CSc2ccccc21, the logP was 4.49.
For Cc1c(Cl)cccc1Nc1ccccc1C(=O)O, the logP was 5.17.
CCS(=O)(=O)c1ccc(S(N)(=O)=O)c2ccccc12 gave a logP of 1.24.
In the case of Nc1ccccc1-c1ccccc1, the logP is reported as 2.84.
Work on Fc1cccc2cccnc12 yielded a logP of 2.19.
With CNC(=O)Oc1cccc(N(C)C)c1 the logP was 1.43.
Molecule O=C(c1ccccc1)c1ccccn1 has a logP of 1.88.
For CN(C)N=Nc1nc[nH]c1C(N)=O, the logP was -0.24.
With NNC(=O)c1ccc([N+](=O)[O-])cc1 the logP was 0.35.
CCC12CC3CC(CC(N)(C3)C1)C2 gave a logP of 3.4.
